According to patent US9409952B2, “Peptide-compound cyclization method” (Chugai Seiyaku Kabushiki Kaisha, priority 2011, dated 2016):
Read-outs that look alike come from different tables or passages of the source. Starred links: 1 amine or outer side, 2 acyl side, 3 side chain; linkers in the order of their positions; H or OH if unused. Positions of bridges follow the written chain, without caps; N, C: chain ends. Non-standard residues stand in square brackets, D forms with d. Residues, ends and D or L forms follow the SMILES beside them. *: point of attachment. Phe(4-(CH2)5CO) = O=C([C@H](Cc1ccc(CCCCCC(=O)[*:3])cc1)N[*:1])[*:2]; Phe(3-(CH2)4CO) = O=C([C@H](Cc1cccc(CCCCC(=O)[*:3])c1)N[*:1])[*:2]; NMePhe(3-Cl) = CN[C@@H](Cc1cccc(Cl)c1)C(=O)O; Tyr(3-F) = N[C@@H](Cc1ccc(O)c(F)c1)C(=O)O; NMeF = CN[C@@H](Cc1ccccc1)C(=O)O; NMeGABA = CN(CCCC(=O)[*:2])[*:1]; NMeI = CC[C@H](C)[C@H](NC)C(=O)O; hPhe = N[C@@H](CCc1ccccc1)C(=O)O; NMeβAla = CN(CCC(=O)[*:2])[*:1]; NMeL = CN[C@@H](CC(C)C)C(=O)O; NMeV = CN[C@H](C(=O)O)C(C)C; NMeA = CN[C@@H](C)C(=O)O; Piperidide = C1CCN(*)CC1; dNMeA = CN[C@H](C)C(=O)O; β3hA = C[C@H](N)CC(=O)O; Sar = CNCC(=O)O; tBu = CC(C)(C)*

Tests used:
[1] = Metabolic stability in human hepatic microsome; assay type: in vitro ADME; conditions: microsomes
[2] = PAMPA (parallel artificial membrane permeability assay); assay type: in vitro ADME; conditions: PAMPA
Outline: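 Artificial membrane was 10% (w/v) egg lecithin plus 0.5% (w/v) cholesterol in dodecane on a PVDF filter. A 10 mM DMSO stock was added at 0.5% (v/v) to donor buffer (50 mM MOPSO, pH 6.5, 5.0% glycocholic acid). After 18 h at 37 °C, LC/MS or LC/UV gave donor and acceptor levels for Pe.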

[3] = pH 7.4, human hepatic microsome, NADPH(+), read-out: CL NADPH(+)
[4] = membrane permeation rate (Pe), 50 mM MOPSO buffer pH 6.5 with 5.0% glycocholic acid, 37° C., 18 hours, read-out: iPAMPA Pe

| SMILES | microsomal CLint at 1 uM [1, 3] [µL/min/mg] | Papp at 18 hours, 50 µM [2, 4] [×10⁻⁶ cm/s] | microsomal CLint at 1 uM ([1]; human, pH 7.4, CL NADPH(+)) [µL/min/mg] | Papp at 18 hours, 50 µM ([2]; pH 6.5) [×10⁻⁶ cm/s] |
| --- | --- | --- | --- | --- |
| CC(C)C[C@H]1C(=O)N(C)[C@@H](CC(C)C)C(=O)N[C@@H]([C@@H](C)O)C(=O)N(C)[C@@H](Cc2ccccc2)C(=O)N(C)[C@@H](CC(C)C)C(=O)N[C@H](C(=O)N(C)[C@@H](Cc2ccccc2)C(=O)N(C)[C@@H](Cc2ccccc2)C(=O)N[C@@H](C)C(=O)N2CCCCC2)CC(=O)N(C)[C@H](C)C(=O)N(C)[C@@H](Cc2ccccc2)C(=O)N(C)[C@@H](CC(C)C)C(=O)N[C@@H](C)C(=O)N1C [DP-207] ([dNMeA][NMeF][NMeL]A[NMeL][NMeL]T[NMeF][NMeL]D[NMeF][NMeF]A-Piperidide; lactam N-10) | 12 | 0.16 |  |  |
| CC[C@H](C)[C@H]1C(=O)N(C)[C@@H](C)C(=O)N[C@H](C(=O)N2CCCCC2)Cc2ccc(cc2)CCCCCC(=O)N[C@@H]([C@@H](C)O)C(=O)N(C)[C@@H](Cc2ccccc2)C(=O)N(C)[C@@H](CC(C)C)C(=O)N[C@@H](C(C)C)C(=O)N2CCC[C@H]2C(=O)N(C)[C@@H](Cc2ccccc2)C(=O)N[C@@H](CC(C)C)C(=O)N(C)CC(=O)N1C [DP-883] (T[NMeF][NMeL]VP[NMeF]L[Sar][NMeI][NMeA][Phe(4-(CH2)5CO)]-Piperidide; lactam N-11) | 294 | 14 |  |  |
| CC(C)C[C@@H]1NC(=O)[C@H](CC(C)C)N(C)C(=O)CN(C)C(=O)[C@H]([C@@H](C)O)NC(=O)[C@H](C)N(C)C(=O)C[C@@H](C(=O)N2CCCCC2)NC(=O)[C@H](Cc2ccccc2)N(C)C1=O [DP-744] ([NMeA]T[Sar][NMeL]L[NMeF]D-Piperidide; lactam N-7) | 61 | 12 |  |  |
| CC[C@H](C)[C@@H]1NC(=O)[C@H](C)N(C)C(=O)[C@@H](C)N(C)C(=O)C[C@@H](C(=O)N2CCCCC2)NC(=O)[C@H](CC(C)C)N(C)C(=O)[C@H](C)N(C)C(=O)[C@H](Cc2ccccc2)N(C)C(=O)[C@H]([C@@H](C)O)NC(=O)[C@H](Cc2ccccc2)N(C)C(=O)[C@H](CC(C)C)N(C)C1=O [DP-51] ([dNMeA][NMeA]I[NMeL][NMeF]T[NMeF][NMeA][NMeL]D-Piperidide; lactam N-10) |  |  | 96 | 34 |
| CC[C@H](C)[C@@H]1NC(=O)CCCN(C)C(=O)C[C@@H](C(=O)N2CCCCC2)NC(=O)[C@H](Cc2ccccc2)N(C)C(=O)[C@H](CC(C)C)N(C)C(=O)CN(C)C(=O)[C@H]([C@@H](C)O)NC(=O)[C@H](C)N(C)C(=O)[C@H](C(C)C)N(C)C(=O)[C@H](C)NC(=O)[C@H](CC(C)C)N(C)C(=O)[C@H](Cc2ccccc2)N(C)C1=O [DP-468] ([NMeGABA]I[NMeF][NMeL]A[NMeV][NMeA]T[Sar][NMeL][NMeF]D-Piperidide; lactam N-12) | 53 | 27 |  |  |
| CC(C)C[C@@H]1NC(=O)[C@H](C(C)C)NC(=O)[C@H](Cc2ccccc2)NC(=O)CCN(C)C(=O)C[C@@H](C(=O)N2CCCCC2)NC(=O)[C@H](CC(C)C)N(C)C(=O)[C@H](CC(C)C)NC(=O)[C@H](C(C)C)N(C)C(=O)[C@H](CC(C)C)NC(=O)[C@H]([C@@H](C)O)NC(=O)CN(C)C1=O [DP-472] ([NMeβAla]FVL[Sar]TL[NMeV]L[NMeL]D-Piperidide; lactam N-11) | 52 | 24 |  |  |
| CC(C)C[C@@H]1NC(=O)[C@H](CC(C)C)N(C)C(=O)[C@H](C)N(C)C(=O)[C@@H](C(C)C)NC(=O)C[C@@H](C(=O)N2CCCCC2)NC(=O)[C@H]([C@@H](C)O)NC(=O)[C@H](C)N(C)C(=O)[C@H](C)N(C)C(=O)[C@H](CC(C)C)N(C)C(=O)[C@H](Cc2ccc(O)c(F)c2)NC(=O)[C@H](Cc2ccccc2)N(C)C1=O [DP-619] ([dV][NMeA][NMeL]L[NMeF][Tyr(3-F)][NMeL][NMeA][NMeA]TD-Piperidide; lactam N-11) | 29 | 12 |  |  |
| CC(C)C[C@@H]1NC(=O)[C@H](CC(C)C)N(C)C(=O)[C@H](C)NC(=O)[C@H](C(C)C)N(C)C(=O)[C@H](Cc2ccccc2)NC(=O)CN(C)C(=O)[C@H]([C@@H](C)O)NC(=O)[C@H](C)N(C)C(=O)[C@H](CC(C)C)N(C)C(=O)[C@@H](C)NC(=O)C[C@H](C)NC1=O [DP-764] (cyclo(A[NMeL]L[β3hA][dA][NMeL][NMeA]T[Sar]F[NMeV])) | 27 | 5 |  |  |
| CC(C)C[C@H]1C(=O)NCC(=O)N[C@H](C(=O)N(C)[C@@H](Cc2ccccc2)C(=O)N(C)[C@@H](Cc2ccccc2)C(=O)N[C@@H](C)C(=O)N2CCCCC2)CC(=O)N[C@H](C(C)C)C(=O)N[C@@H]([C@@H](C)O)C(=O)N(C)[C@@H](C)C(=O)N(C)[C@@H](Cc2ccccc2)C(=O)N[C@@H](C(C)C)C(=O)N(C)[C@@H](Cc2ccccc2)C(=O)N1C [DP-401] ([dV]T[NMeA][NMeF]V[NMeF][NMeL]GD[NMeF][NMeF]A-Piperidide; lactam N-9) |  |  | 145 | 8.6 |
| CC[C@H](C)[C@H](NC(=O)[C@H](CC(C)C)N(C)C(=O)[C@H](CC(C)C)N(C)C(=O)[C@H](Cc1cccc(Cl)c1)N(C)C(=O)[C@@H]1CC(=O)N(C)[C@@H](C)C(=O)N[C@@H](C(C)C)C(=O)N(C)[C@@H](Cc2ccccc2)C(=O)N[C@@H]([C@@H](C)O)C(=O)N2CCC[C@H]2C(=O)N(C)[C@@H](Cc2ccccc2)C(=O)N[C@@H](CC(C)C)C(=O)N1)C(=O)N1CCCCC1 [DP-927] ([NMeA]V[NMeF]TP[NMeF]LD[NMePhe(3-Cl)][NMeL][NMeL]I-Piperidide; lactam N-8) |  |  | 5 | 0.1 |
| CC[C@H](C)[C@@H]1NC(=O)CCCCc2cccc(c2)C[C@@H](C(=O)N2CCCCC2)NC(=O)[C@H](Cc2ccccc2)N(C)C(=O)[C@H](CC(C)C)N(C)C(=O)CN(C)C(=O)[C@H]([C@@H](C)O)NC(=O)[C@H](C)N(C)C(=O)[C@H](C(C)C)N(C)C(=O)[C@H](C)NC(=O)[C@H](CC(C)C)N(C)C(=O)[C@H](Cc2ccccc2)N(C)C1=O [DP-886] (I[NMeF][NMeL]A[NMeV][NMeA]T[Sar][NMeL][NMeF][Phe(3-(CH2)4CO)]-Piperidide; lactam N-11) | 162 | 22 |  |  |
| CC[C@H](C)[C@H]1C(=O)N[C@@H](Cc2ccccc2)C(=O)N[C@@H]([C@@H](C)O)C(=O)N2CCC[C@H]2C(=O)N[C@@H](Cc2ccccc2)C(=O)N[C@H](C(=O)N2CCCCC2)CC(=O)N(C)CCC(=O)N(C)[C@@H](CC(C)C)C(=O)N(C)[C@@H](CC(C)C)C(=O)N[C@@H](CC(C)C)C(=O)NCC(=O)N1C [DP-239] ([NMeβAla][NMeL][NMeL]LG[NMeI]FTPFD-Piperidide; lactam N-11) | 109 | 25 |  |  |
| CC[C@H](C)[C@H](NC(=O)[C@H](CC(C)C)N(C)C(=O)[C@@H]1CCCN1C(=O)[C@H](Cc1ccccc1)N(C)C(=O)[C@@H]1CC(=O)N(C)CCC(=O)N[C@@H](Cc2ccccc2)C(=O)N(C)[C@@H](CC(C)C)C(=O)N[C@@H]([C@@H](C)O)C(=O)N[C@@H](C(C)C)C(=O)NCC(=O)N(C)[C@@H](CC(C)C)C(=O)N[C@@H](CC(C)C)C(=O)N(C)[C@@H](CC(C)C)C(=O)N1)C(=O)N1CCCCC1 [DP-948] ([NMeβAla]F[NMeL]TVG[NMeL]L[NMeL]D[NMeF]P[NMeL]I-Piperidide; lactam N-10) | 20 | 0.78 |  |  |
| CC(C)C[C@H]1C(=O)N(C)[C@@H](C(C)C)C(=O)N(C)[C@@H](C)C(=O)N[C@@H](CCc2ccccc2)C(=O)N(C)[C@@H](C)C(=O)N[C@H](C(=O)N2CCCCC2)CC(=O)N(C)[C@@H](C)C(=O)N[C@@H]([C@@H](C)O)C(=O)N(C)[C@@H](C)C(=O)N[C@@H](C)C(=O)N(C)[C@@H](Cc2ccccc2)C(=O)N1C [DP-734] ([NMeA]T[NMeA]A[NMeF][NMeL][NMeV][NMeA][hPhe][NMeA]D-Piperidide; lactam N-11) | 84 | 16 |  |  |
| CC[C@H](C)[C@H]1C(=O)N[C@H](C(=O)N2CCCCC2)CC(=O)N(C)CCCC(=O)N(C)[C@@H](CC(C)C)C(=O)N[C@@H](C)C(=O)N(C)[C@@H](CC(C)C)C(=O)N(C)[C@@H](Cc2ccccc2)C(=O)N(C)[C@@H](CC(C)C)C(=O)N[C@@H]([C@@H](C)O)C(=O)N(C)[C@@H](C)C(=O)N(C)[C@@H](Cc2ccccc2)C(=O)N1C [DP-251] ([NMeGABA][NMeL]A[NMeL][NMeF][NMeL]T[NMeA][NMeF][NMeI]D-Piperidide; lactam N-11) | 45 | 24 |  |  |
| CC[C@H](C)[C@H]1C(=O)N(C)[C@@H](C)C(=O)N(C)[C@@H](CC(C)C)C(=O)N[C@@H](COC(C)(C)C)C(=O)N(C)[C@@H](CC(C)C)C(=O)N[C@@H](C)CC(=O)N(C)[C@@H](C)C(=O)N(C)[C@@H](Cc2ccccc2)C(=O)N[C@@H](CC(C)C)C(=O)N(C)[C@@H](CC(C)C)C(=O)N[C@@H]([C@@H](C)O)C(=O)N[C@@H](Cc2ccccc2)C(=O)N1C [DP-761] (cyclo(F[NMeI][NMeA][NMeL]S(tBu)[NMeL][β3hA][NMeA][NMeF]L[NMeL]T)) |  |  | 118 | 9.2 |
